pEC50: −log10 of the molar value.
These molecules were tested against T1, human parathyroid cell Ca^2+ receptor (hPCaR) (Homo sapiens, UniProt P41180) (assay: [Ca2+]i measurement with fluo-3 in HEK 293 4.0-7 cells stably transfected with hPCaR). Conditions: fluo-3 fluorescence (485/530 nm), effect on [Ca^2+]i.
T1 construct: expressed in transfected cells
T1 sequence (P41180 20-1078): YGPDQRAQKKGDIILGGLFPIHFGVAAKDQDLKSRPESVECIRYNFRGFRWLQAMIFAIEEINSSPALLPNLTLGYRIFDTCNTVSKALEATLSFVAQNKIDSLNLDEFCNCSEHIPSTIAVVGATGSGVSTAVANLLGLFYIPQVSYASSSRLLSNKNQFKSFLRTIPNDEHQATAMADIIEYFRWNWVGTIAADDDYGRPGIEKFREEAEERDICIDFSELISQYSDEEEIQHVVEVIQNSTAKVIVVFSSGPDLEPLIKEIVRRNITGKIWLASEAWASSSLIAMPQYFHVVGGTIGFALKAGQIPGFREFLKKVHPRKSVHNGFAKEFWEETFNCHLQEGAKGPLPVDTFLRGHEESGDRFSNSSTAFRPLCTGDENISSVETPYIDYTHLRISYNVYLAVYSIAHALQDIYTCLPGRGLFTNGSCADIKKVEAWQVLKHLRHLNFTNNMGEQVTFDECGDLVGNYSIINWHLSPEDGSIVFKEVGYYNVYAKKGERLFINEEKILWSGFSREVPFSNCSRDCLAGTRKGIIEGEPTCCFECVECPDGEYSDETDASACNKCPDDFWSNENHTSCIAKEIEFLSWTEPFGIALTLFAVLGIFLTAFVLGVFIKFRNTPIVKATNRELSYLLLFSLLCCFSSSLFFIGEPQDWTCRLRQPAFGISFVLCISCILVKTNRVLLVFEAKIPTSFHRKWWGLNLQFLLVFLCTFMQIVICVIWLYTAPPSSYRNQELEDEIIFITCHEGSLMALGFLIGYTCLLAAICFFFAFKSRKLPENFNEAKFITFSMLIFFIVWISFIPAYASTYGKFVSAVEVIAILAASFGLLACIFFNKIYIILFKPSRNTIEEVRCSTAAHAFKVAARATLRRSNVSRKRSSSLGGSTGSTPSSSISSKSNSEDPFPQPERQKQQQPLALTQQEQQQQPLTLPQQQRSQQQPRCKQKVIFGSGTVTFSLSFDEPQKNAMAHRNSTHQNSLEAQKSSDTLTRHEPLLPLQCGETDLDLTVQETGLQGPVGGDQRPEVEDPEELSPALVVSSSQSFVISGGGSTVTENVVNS
Format: cell-based
How it was run: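 Cytosolic [Ca2+] was read as fluo-3 fluorescence (ex 485/em 530 nm) after compound addition to washed cells. Cells were hPCaR-transfected HEK 293 clone 7, dye-loaded 30 min at 37 °C with 2 μM fluo-3 acetoxymethyl ester in HEPES-buffered saline pH 7.45 containing 1 mM CaCl2 and 0.5% BSA.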

| pEC50 | Compound |
| --- | --- |
| ≥ 5.00 | COc1cccc([C@@H](C)NCc2ccc(OC)c(-c3ncccn3)c2)c1 [(1R)-1-(3-(methyloxy)phenyl)-N-((4-(methyloxy)-3-(2-pyrimidinyl)phenyl)methyl)ethanamine] |
| ≥ 5.00 | COc1ccc(CN[C@H](C)c2cccc3ccccc23)cc1C1CCN(C)CC1 [(1R)-N-((4-(methyloxy)-3-(1-methyl-4-piperidinyl)phenyl)methyl)-1-(1-naphthalenyl)ethanamine] |
| ≥ 5.00 | CCNC(=O)Nc1ccc(CN[C@H](C)c2ccccc2)cc1-c1ccc(OC)cc1 [N-ethyl-N′-(4′-(methyloxy)-5-((((1R)-1-phenylethyl)amino)methyl)-1,1′-biphenyl-2-yl)urea] |
| ≥ 5.00 | CCOc1ccc(-c2cc(CN[C@H](C)c3ccccc3)ccc2OC)cn1 [(1R)-N-((3-(6-(ethyloxy)-3-pyridinyl)-4-(methyloxy)phenyl)methyl)-1-phenylethanamine] |
| ≥ 5.00 | COc1cccc([C@@H](C)NCc2ccc(OC)c(-c3ccc4ncccc4c3)c2)c1 [(1R)-1-(3-(methyloxy)phenyl)-N-((4-(methyloxy)-3-(6-quinolinyl)phenyl)methyl)ethanamine] |
| ≥ 5.00 | COc1ccc(CN[C@H](C)c2ccccc2)cc1-c1cccnc1NCC1CCCO1 (stereo partly drawn) [3-(2-(methyloxy)-5-((((1R)-1-phenylethyl)amino)methyl)phenyl)-N-(tetrahydro-2-furanylmethyl)-2-pyridinamine] |
| ≥ 5.00 | COc1cccc([C@@H](C)NCc2ccc(OC)c(-c3ccc(OC)nc3)c2)c1 [(1R)-N-((4-(methyloxy)-3-(6-(methyloxy)-3-pyridinyl)phenyl)methyl)-1-(3-(methyloxy)phenyl)ethanamine] |
| ≥ 5.00 | COc1ccc(CN[C@H](C)c2cccc(F)c2)cc1-c1ccc(F)cc1 [(1R)-N-((4′-fluoro-6-(methyloxy)-1,1′-biphenyl-3-yl)methyl)-1-(3-fluorophenyl)ethanamine] |
| ≥ 5.00 | COc1ccc(CN[C@H](C)c2cccc(Cl)c2)cc1-c1ccc(C(F)(F)F)cc1 [(1R)-1-(3-chlorophenyl)-N-((6-(methyloxy)-4′-(trifluoromethyl)-1,1′-biphenyl-3-yl)methyl)ethanamine] |
| ≥ 5.00 | Cc1ccc([C@@H](C)NCc2cccc(-c3ccc4c(c3)OCO4)c2)cc1 [(1R)-N-((3-(1,3-benzodioxol-5-yl)phenyl)methyl)-1-(4-methylphenyl)ethanamine] |
| ≥ 5.00 | CC[C@@H](NCc1ccc(OC)c(-c2ccc(OC)cc2)c1)c1ccccc1 [Example 450, (1R)-N-((4′,6-bis(methyloxy)-1,1′-biphenyl-3-yl)methyl)-1-phenyl-1-propanamine] |
| ≥ 5.00 | Cc1ccc([C@@H](C)NCc2cccc(-c3ccc(C)c(C)c3)c2)cc1 [(1R)-N-((3′,4′-dimethyl-1,1′-biphenyl-3-yl)methyl)-1-(4-methylphenyl)ethanamine] |
| ≥ 5.00 | COCCOc1ccc(CN[C@H](C)c2ccccc2)cc1-c1ccc(C(F)(F)F)cc1 [(1R)-N-((6-((2-(methyloxy)ethyl)oxy)-4′-(trifluoromethyl)-1,1′-biphenyl-3-yl)methyl)-1-phenylethanamine] |
| ≥ 5.00 | COc1ccc(CN[C@H](C)c2cccc3ccccc23)cc1-c1ccc2nccnc2c1 [(1R)-N-((4-(methyloxy)-3-(6-quinoxalinyl)phenyl)methyl)-1-(1-naphthalenyl)ethanamine] |
| ≥ 5.00 | COc1ccc(CN[C@H](C)c2ccccc2)cc1-c1ccc(S(C)(=O)=O)cc1 [(1R)-N-((6-(methyloxy)-4′-(methylsulfonyl)-1,1′-biphenyl-3-yl)methyl)-1-phenylethanamine] |
| ≥ 5.00 | COc1ccc(CN[C@H](C)c2cccc3ccccc23)cc1-c1ccc(OCCN2CCCC2)nc1 [(1R)-N-((4-(methyloxy)-3-(6-((2-(1-pyrrolidinyl)ethyl)oxy)-3-pyridinyl)phenyl)methyl)-1-(1-naphthalenyl)ethanamine] |
| ≥ 5.00 | COc1cccc([C@@H](C)NCc2ccc(OC)c(C3CCN(C)CC3)c2)c1 [(1R)-N-((4-(methyloxy)-3-(1-methyl-4-piperidinyl)phenyl)methyl)-1-(3-(methyloxy)phenyl)ethanamine] |
| ≥ 5.00 | COc1ccc(CN[C@H](C)c2ccccc2)cc1-c1ccc2c(cnn2C)c1 [(1R)-N-((3-(1-methyl-1H-indazol-5-yl)-4-(methyloxy)phenyl)methyl)-1-phenylethanamine] |

| pEC50 | Compound |
| --- | --- |
| ≥ 5.00 | COc1ccc(CN[C@H](C)c2cccc3ccccc23)cc1-c1ccc2ccn(C)c2c1 [(1R)-N-((3-(1-methyl-1H-indol-6-yl)-4-(methyloxy)phenyl)methyl)-1-(1-naphthalenyl)ethanamine] |
| ≥ 5.00 | COc1ccc(CN[C@H](C)c2cccc3ccccc23)cc1-c1ccc2c(ccn2CC(F)(F)F)c1 [(1R)-N-((4-(methyloxy)-3-(1-(2,2,2-trifluoroethyl)-1H-indol-5-yl)phenyl)methyl)-1-(1-naphthalenyl)ethanamine] |
| ≥ 5.00 | CCOC(=O)N1CCC(c2cc(CN[C@H](C)c3cccc(OC)c3)ccc2OC)CC1 [ethyl 4-(2-(methyloxy)-5-((((1R)-1-(3-(methyloxy)phenyl)ethyl)amino)methyl)phenyl)-1-piperidinecarboxylate] |
| ≥ 5.00 | COc1ccc(CN[C@H](C)c2cccc3ccccc23)cc1-c1ccc(C)nc1 [(1R)-N-((4-(methyloxy)-3-(6-methyl-3-pyridinyl)phenyl)methyl)-1-(1-naphthalenyl)ethanamine] |
| ≥ 5.00 | COc1ccc(CN[C@H](C)c2cccc3ccccc23)cc1-c1nnc(C(F)(F)F)o1 [(1R)-N-((4-(methyloxy)-3-(5-(trifluoromethyl)-1,3,4-oxadiazol-2-yl)phenyl)methyl)-1-(1-naphthalenyl)ethanamine] |
| ≥ 5.00 | COc1ccc(CN[C@H](C)c2ccccc2)cc1-c1ccc2ncccc2c1 [(1R)-N-((4-(methyloxy)-3-(6-quinolinyl)phenyl)methyl)-1-phenylethanamine] |
| ≥ 5.00 | COc1cccc([C@@H](C)NCc2ccc(OC)c(-c3cnccn3)c2)c1 [(1R)-1-(3-(methyloxy)phenyl)-N-((4-(methyloxy)-3-(2-pyrazinyl)phenyl)methyl)ethanamine] |
| ≥ 5.00 | COc1ccc(CN[C@H](C)c2cccc3ccccc23)cc1-c1ccoc1 [(1R)-N-((3-(3-furanyl)-4-(methyloxy)phenyl)methyl)-1-(1-naphthalenyl)ethanamine] |
| ≥ 5.00 | COc1ccc(CN[C@H](C)c2ccccc2)cc1-c1csc(N)n1 [4-(2-(methyloxy)-5-((((1R)-1-phenylethyl)amino)methyl)phenyl)-1,3-thiazol-2-amine] |
| ≥ 5.00 | COc1cccc([C@@H](C)NCc2cccc(-c3cnccn3)c2)c1 [(1R)-1-(3-(methyloxy)phenyl)-N-((3-(2-pyrazinyl)phenyl)methyl)ethanamine] |
| ≥ 5.00 | COc1cccc([C@@H](C)NCc2ccc(OC)c(-c3cc(OC)ccn3)c2)c1 [(1R)-N-((4-(methyloxy)-3-(4-(methyloxy)-2-pyridinyl)phenyl)methyl)-1-(3-(methyloxy)phenyl)ethanamine] |
| ≥ 5.00 | COCCOc1ccc(-c2cc(CN[C@H](C)c3ccccc3)ccc2OC)cn1 [(1R)-N-((4-(methyloxy)-3-(6-((2-(methyloxy)ethyl)oxy)-3-pyridinyl)phenyl)methyl)-1-phenylethanamine] |
| ≥ 5.00 | COc1cccc([C@@H](C)NCc2ccc(OC)c(-c3ccc4c(c3)CCO4)c2)c1 [(1R)-N-((3-(2,3-dihydro-1-benzofuran-5-yl)-4-(methyloxy)phenyl)methyl)-1-(3-(methyloxy)phenyl)ethanamine] |
| ≥ 5.00 | COc1ccc(CN[C@H](C)c2cccc3ccccc23)cc1-c1ccc2c(c1)ncn2C [(1R)-N-((3-(1-methyl-1H-benzimidazol-5-yl)-4-(methyloxy)phenyl)methyl)-1-(1-naphthalenyl)ethanamine] |
| ≥ 5.00 | COc1ccc(CNC(C)c2cccc(C)c2)cc1-c1ccc(C(F)(F)F)cc1 (centres unmarked) [N-((6-(methyloxy)-4′-(trifluoromethyl)-1,1′-biphenyl-3-yl)methyl)-1-(3-methylphenyl)ethanamine] |
| ≥ 5.00 | COc1ccc(CNC(C)c2cccc(N(C)C)c2)cc1-c1ccc(C(F)(F)F)cc1 (centres unmarked) |
| ≥ 5.00 | COc1ccc(CN[C@H](C)c2ccccc2)cc1-c1ccc(N)nc1 [5-(2-(methyloxy)-5-((((1R)-1-phenylethyl)amino)methyl)phenyl)-2-pyridinamine] |

From patent US6908935B2, “Calcium receptor modulating agents” (Amgen Inc., priority 2002, dated 2005)
